For orientation: IC50 means the concentration at which inhibition is half-maximal. Broadly, the inhibition is the share of the control response that was lost under treatment. Low values mean a weak effect, high ones a strong effect. What is called % Inhibition is the percentage by which the read-out fell short of the control.

Values after ≈ are worked out from the molar mass of the structure shown. Where two headings read alike, the source gives them in different places.

Data set [1] relates to Mycobacterium tuberculosis growing inside murine Raw 264.7 cell line. Kind of data set: microbe, parasite or virus in culture. Format: cell-based. Particulars: H37RV, RAW264.7, 120 h.
In data set [2] the test system is Mycobacterium tuberculosis (H37Rv strain from ATCC cat #27294) expressing the green-fluorescent protein (GFP). Kind of data set: microbe, parasite or virus in culture. Format: cell-based. Particulars: 120 h.
The subject of data set [3] is M. tuberculosis H37Rv strain. Particulars: for reduction of microorganism burden in lungs with respect to untreated controls (Day 9): C57BL/6 mice.
In data set [4] the test system is Mycobacterium bovis BCG str. Pasteur 1173P2. Kind of data set: microbe, parasite or virus in culture. The data set is classed as cell-based.
Data set [5] has as its system Mycobacterium tuberculosis growing inside human THP-1 monocytes. Kind of data set: Intracellular viability assay 1b (THP-1, luciferase, Bright-Glo). Format: cell-based, Mycobacterium tuberculosis H37Rv. The conditions noted are these: THP-1, 120 h.
For data set [6] the test system is unchanged. The data set is described as follows: Intracellular viability assay 1a (THP-1, luciferase, Steady-Glo). The data set is classed as cell-based, Mycobacterium tuberculosis H37Rv. Particulars: THP-1, 120 h.
Data set [7] relates to M. tuberculosis strain H37Rv. Kind of data set: Extracellular viability assay, glucose media (Method 2), resazurin MIC. Particulars: Mycobacterium tuberculosis. The data set is classed as cell-based. A general note: Resazurin is reduced to fluorescent resorufin, in cell work by metabolically active cells.
Data set [8] has as its system Mycobacterium tuberculosis Erdman strain. The data set is described as follows: Extracellular viability assay, Erdman strain, cholesterol media (Method 3). Format: cell-based. Particulars: 0.01% cholesterol medium, 7 days + 48 h resazurin, average over 5 measurements.
Another data set relates to M. africanum. Kind of data set: Extracellular MIC assay of Example 7, M. africanum. Particulars: Mycobacterium tuberculosis, cholesterol medium. The data set is classed as cell-based.
The next data set concerns M. bovis 0AF2122. The data set is described as follows: microbe, parasite or virus in culture. The data set is classed as cell-based. The conditions noted are these: Mycobacterium tuberculosis variant bovis, 0AF2122, read-out: MIC 2.
Where [9] appears, read: read-out: IC50 (uM) (cholesterol media).
Setting [10] is: read-out: IC50 (uM) (glucose media).

Take `NNC(=O)c1ccncc1` [Isoniazid]: the IC50 in data set [1] was 70 nM; in data set [2] (setting [9]), 0.2 µM; in data set [2] (setting [10]) it was 0.5 µM.

Turning to `COc1c(N2C[C@@H]3CCCN[C@@H]3C2)c(F)cc2c(=O)c(C(=O)O)cn(C3CC3)c12` [Moxifloxacin, reference compound], the “reduction of microorganism burden in lungs with respect to untreated controls (Day 9)” value in data set [3] (30 mg/kg once a day for 8 days) worked out at 3.2 log10 CFU.

`CO[C@H]1/C=C/O[C@@]2(C)Oc3c(C)c(O)c4c(O)c(c(/C=N/N5CCN(C)CC5)c(O)c4c3C2=O)NC(=O)/C(C)=C\C=C\[C@H](C)[C@H](O)[C@@H](C)[C@@H](O)[C@@H](C)[C@H](OC(C)=O)[C@@H]1C` [Rifampicin, reference compound]: testing at 2 µM in data set [4] (Mycobacterium tuberculosis variant bovis BCG, BCG) gave an inhibition of 100%. Also, the IC50 was 2 nM in [5]; 200 nM in [1]; 0.04 µM in data set [2] (setting [9]); 0.02 µM in data set [2] (setting [10]); 10 nM in [6].

As for `Cc1cccc(OC2CCN(Cc3cc(=O)[nH]c(=O)[nH]3)CC2)c1C` [Test Compound, 6-((4-(2,3-dimethylphenoxy)piperidin-1-yl)methyl)pyrimidine-2,4(1H,3H)-dione], the MIC in [7] was more than 12.5 µM; in the data set with M. africanum (read-out: MIC 1), 1.2 µM (≈ 0.395 µg/mL); with M. africanum (read-out: MIC 2), 1.2 µM (≈ 0.395 µg/mL); with M. bovis 0AF2122 it was 0.78 µM (≈ 0.257 µg/mL). In addition, the “% Inhibition” value in data set [4] came to 46.18%. Moreover, the IC50 is 874 nM in [8]; 70 nM in data set [5]; 60 nM in [1]; 0.28 µM in [2] (setting [9]); more than 20 µM in data set [2] (setting [10]); 390 nM in data set [6]. For the same molecule, the “reduction of microorganism burden in lungs with respect to untreated controls (Day 9)” value in [3] (200 mg/kg once a day for 8 days) is 1.6 log10 CFU. Moreover, in data set [3] (mouse), the “oral bioavailability (conclusion from murine in vivo data)” value was “orally bioavailable”.

These data come from patent US10624893B2 (priority 2016, dated 2020).
